pIC50: −log10 of the molar value. Read-outs that look alike come from different tables or passages of the source.
Assays:
in vivo [1] = settings: rat, iv, 1.4 mg/kg
Protocol: 113 was dissolved in 4% NaHCO3 in saline for IV administration. The detailed procedure of dosing solution preparation was presented in Appendix I.
15 animals were placed on the study. The animals in IV arm were free access to food and water. For PO dose group, the animals were fasted overnight prior to dosing and the food was resumed 4 hours postdose.
The IV injection was conducted via foot dorsal vein. PO via oral gavage.
Blood collection: The animal is restrained manually. Approximately 200 μL of blood/time point is collected into sodium heparin tube via cardiac puncture for terminal bleeding (anesthetized under carbon dioxide). Blood sample will be put on ice and centrifuged to obtain plasma sample (2000 g, 5 min under 4° C.) within 10 minutes.
Liver collection: The animal will be euthanized with carbon dioxide inhalation. Open abdominal cavity with scissor to expose internal organs. Hold the carcass in an upright position and allow the organs to fall forward. Cut the connective tissues and remove the organs. Then the organs are rinsed with cold saline, dried on filtrate paper, placed into a screw-top tube and weighed, snap frozen by placing into dry-ice immediately.
Brain collection: Make a mid-line incision in the animals scalp and retract the skin. Using small bone cutters and rongeurs, remove the skull overlying the brain. Remove the brain using a spatula and rinse with cold saline, dried on filtrate paper, placed into a screw-top tube and weighed, snap frozen by placing into dry-ice immediately. […] Plasma, brain and liver samples were stored at approximately −80° C. until analysis. The backup samples will be discarded after three weeks after in-life completion unless requested. The unused dosing solutions will be discarded within three weeks after completion of the study.
Pharmacokinetic Analysis Software: The PK parameters were determined by non-compartmental model of non-compartmental analysis tool, Pharsight Phoenix WinNonlin® 6.2 software. […] Concentration data within 80%-120% of LLOQ was considered within normal instrumental variation and presented in the results. Terminal t1/2 calculation: Time points were automatic selected by “best fit” model for terminal half life estimation as the first option. Manual selection was applied when “best fit” could not well define the terminal phase. Results

[2] = Pharmacokinetic study of 151 (iv, oral) in SD rats: 151 and 100 in plasma; assay type: in vivo; settings: male, rat, in vivo, iv, 1 mg/kg, 5 h
Protocol: The absolute bioavailability was evaluated.
To each sample, 160 μL of acetonitrile were added.
The mass spectrometer was operated in the positive mode.
Quantification was achieved by the external standard method.
Calibration Curve for Plasma Samples
LB100 concentrations of the LB151 plasma samples were also measured and pharmacokinetic parameters were calculated.

in vivo [3] = assay type: in vivo; settings: rat, in vivo
Protocol: 100 was administrated via iv route at 0.5, 1.0 and 1.5 mg/kg into SD rats. The blood, liver and brain tissue samples were collected at predetermined times from rats.
Twelve (12) female SD rats per group were dosed by iv with 100. The rats were fasted overnight prior to dosing, with free access to water. Foods were withheld for 2 hours post-dose. Blood, liver and brain tissue samples in two animals each group were collected at each time point, within 10% of the scheduled time for each time point. Two extra animals were used for analytic method development. Blood (>0.3 mL) were collected via aorta abdominalis in anaesthetic animals into tubes containing heparin at 15 min, 1, 2, 6, 10 and 24 hours after iv administration. Liver and brain tissues were collected immediately after animal death. The liver and brain tissues were excised and rinsed with cold saline to avoid blood residual. Upon collection, each sample was placed on ice and the blood samples were subsequently centrifuged (4° C., 11000 rpm, 5 min) to separate plasma. The obtained plasma, liver and brain tissue samples were stored at −70° C. until LC-MS/MS analysis.
AUC0-∞ (AUCINF) is the area under the plasma concentration-time curve with last concentration extrapolated based on the elimination rate constant.

[4] = test system: PP2A in circulating white blood cells; assay: Inhibition of PP2A in circulating white blood cells after slow iv 100; assay type: in vivo; settings: rat
[5] = test system: broad spectrum of human cancer cell lines; assay: Activity of compound 100 against human cancer cell lines; assay type: cell-based
U251 human GBM cells = settings: compound 100 ip plus radiation
Protocol: Compound 100 is a serine-threonine phosphatase inhibitor that potentiates the activity of standard chemotherapeutic drugs and radiation. The mechanism of potentiation is impairment of multiple steps in a DNA-damage repair process and inhibition of exit from mitosis. […] Mice bearing subcutaneous (sc) xenografts of U251 human GBM cells were treated with compound 100 intraperitoneally together with radiation, each given daily for 5 days×3 courses.

[6] = Stability in the presence of microsomes; assay type: in vitro ADME; settings: mouse, rat, dog, monkey, and human microsomes; relative to verapamil
[7] = Radiation dose enhancement by compound 100; settings: compound 100 treatment
[8] = rat, in vivo
[9] = rat, in vivo; remark: listed apart in the source
[10] = female rats, day 4, cited from earlier work
[11] = female dogs, day 4, cited from earlier work
[12] = male, SD, Liver-plasma concentration ratio of 100
[13] = male, SD, liver concentration of 100
[14] = male, SD, plasma concentration of 100
[15] = male, Sprague-Dawley, Liver-plasma concentration ratio of 100

SMILES: CN1CCN(C(=O)C2C3CCC(O3)C2C(=O)O)CC1 (centres unmarked) [Compound 100]
- plasma concentration of 100 (in vivo [1]; male, SD, 6 hr): 3.25 ng/mL
- Kp at 0.25 hr (in vivo [1]; [12]): 4.1
- Kp at 1 hr (in vivo [1]; [12]): 4.98
- concentration at 0.25 hr (in vivo [1]; [13]): 2090 ng/g
- concentration at 1 hr (in vivo [1]; [13]): 1360 ng/g
- concentration at 2 hr (in vivo [1]; [13]): 425 ng/g
- concentration at 6 hr (in vivo [1]; [13]): 23.8 ng/g
- concentration at 0.25 hr (in vivo [1]; [14]): 510 ng/mL
- concentration at 1 hr (in vivo [1]; [14]): 273 ng/mL
- concentration at 6 hr (in vivo [1]; [14]): 3.25 ng/mL
- AUC(0-t) ratio of liver over plasma (in vivo [1]; male, Sprague-Dawley): 399
- Liver-plasma concentration ratio of 100 (in vivo [1]; male, Sprague-Dawley, 6 hr): 7.32
- Kp at 2 hr (in vivo [1]; [15]): 4.95
- Kp at 6 hr (in vivo [1]; [15]): 7.32
- AUC(0-last) in liver (in vivo [1]): 2804 ng·h/g
- AUC(0-∞) in liver (in vivo [1]): 2834 ng·h/g
- AUClast-liver/AUClast-plasma of 100 (in vivo [1]): 399
- Plasma Concentrations of 100 ([2]; Sprague-Dawley (SD)): 5.10 ng/mL
- Plasma Concentrations of 100 ([2]; Sprague-Dawley): 10.2 ng/mL
- half-life (in vivo [3]; Sprague-Dawley): ≤ 1 h
- mean Cmax in plasma (in vivo [3]; female, Sprague-Dawley, iv, 1.5 mg/kg): 1110 to 3664 ng/mL
- detectability in liver and brain tissue samples (in vivo [3]; iv): detectable
- AUClast in brain (in vivo [3]; iv, 1.5 mg/kg): 10.8 to 125.5 ng·h/g
- AUClast in liver (in vivo [3]; iv, 1.5 mg/kg): 758.6 to 9081.0 ng·h/g
- inhibition of PP2A in circulating white blood cells ([4]; slow iv 100 at 0.375 mg/kg): 9%
- inhibition of PP2A in circulating white blood cells ([4]; slow iv 100 at 0.75 mg/kg): 15%
- inhibition of PP2A in circulating white blood cells ([4]; slow iv 100 at 1.5 mg/kg): 25%
- pIC50 [5]: 5.52 to 6.00
- recurrence of the remaining 40% of xenografts vs radiation alone (U251 human GBM cells): two months later
- xenografts eliminated (U251 human GBM cells; daily for 5 days x 3 courses, 6 months plus follow-up): 60%
- stability in presence of microsomes [6]: stable relative to verapamil
- radiation dose enhancement factor [7]: 1.45
- oral bioavailability [8]: 1%
- plasma level after oral administration [8]: little is present in plasma after oral administration
- passage of blood brain barrier (BBB) [9]: does not readily pass the blood brain barrier (BBB)
- % AUC* Extrapolated ([10]; 0.5 mg/kg): 5.6%
- Co ([10]; 0.5 mg/kg): 1497 ng/mL
- DN AUClast ([10]; 0.5 mg/kg): 904
- % AUC* Extrapolated ([10]; 0.75 mg/kg): 27%
- Co ([10]; 0.75 mg/kg): 2347 ng/mL
- DN AUClast ([10]; 0.75 mg/kg): 921
- % AUC* Extrapolated ([10]; 1.25 mg/kg): 17%
- Co ([10]; 1.25 mg/kg): 3849 ng/mL
- DN AUClast ([10]; 1.25 mg/kg): 1887
- Co ([11]; 0.15 mg/kg): 566 ng/mL
- Co ([11]; 0.30 mg/kg): 857 ng/mL
- Co ([11]; 0.50 mg/kg): 1930 ng/mL
